Reference: patent US8513428B2, “Process for preparing atazanavir bisulfate and novel forms” (Bristol-Meyers Squibb Company, priority 2009, dated 2013)
Counter-ions that a name gives are not always drawn.

Assay: moisture-sorption isotherms
Type: physicochemical
Conditions: in the range from 25 to 75% RH at 25° C.

SMILES: COC(=O)N[C@H](C(=O)N[C@@H](Cc1ccccc1)[C@@H](O)CN(Cc1ccc(-c2ccccn2)cc1)NC(=O)[C@@H](NC(=O)OC)C(C)(C)C)C(C)(C)C [Form A, 1-[4-(Pyridin-2-yl)phenyl]-5(S)-2,5-bis{[N-(methoxycarbonyl)-L-tert-leucinyl]amino}-4-(S)-hydroxy-6-phenyl-2-azahexane, Bisulfate salt (Form A)]
- moisture-sorption isotherms weight gain: about 0.1%
